Read-outs that look alike come from different tables or passages of the source.
Legend:
RMPCC's = conditions: cited from earlier work
[1] = cited from earlier work
HepG2 cells [2] = conditions: cited from earlier work
[3] = cited from earlier work; remark: listed apart in the source
[4] = tested on: HepG2 C3A spheroid, BSEP, Glu/Gal in HepG2 cells, bioactivation; conditions: cited from earlier work
[5] = tested on: THLE or HepG2 cells, isolated mitochondria, BSEP; conditions: cited from earlier work
human hepatocytes = conditions: cited from earlier work
hu-MPCC = conditions: cited from earlier work
HepG2 cells [6] = conditions: cited from earlier work; remark: listed apart in the source
[7] = human, in vivo; cited from earlier work
[8] = in vivo; cited from earlier work
HepaRG spheroids [9] = experiment: Combined HCI (HCS) and cellular ATP 3D assay in HepaRG spheroids; conditions: Homo sapiens, HepaRG
[10] = Plasma free fraction (fu) and unbound Cmax (Cmax,u); type: in vitro ADME, human; conditions: human
Procedure: The prediction of DILI severity was evaluated further using the 3D combined HCI assays using plasma-free fraction. The majority of fu values were obtained from literature, when unavailable in-house prediction was utilised. Unbound plasma Cmax concentrations (Cmax,u) were derived by multiplying total plasma Cmax with the corresponding free fraction (fu) for each compound.

hLiMTs [11] = conditions: cited from earlier work
hLiMTs [12] = experiment: Combined HCI (HCS) and cellular ATP 3D assay in hLiMTs; conditions: Homo sapiens
HepaRG spheroids [13] = tested on: HepaRG spheroids
PHH [14] = conditions: cited from earlier work
[15] = tested on: primary human hepatocytes, NIH3T3 fibroblasts, BSEP, CYP3A4; conditions: cited from earlier work
hLiMTs [16] = tested on: hLiMTs
[17] = tested on: isolated mouse liver mitochondria; conditions: In vitro Assay; ref Porceddu 2012; cited from earlier work
HepG2 cells [18] = conditions: In vitro Assay; ref Persson 2013; cited from earlier work
PHH spheroids = conditions: In vitro Assay; ref Vorrink 2018; cited from earlier work
HepG2 = tested on: HepG2; parameters: method as in Albrecht 2019; conditions: In vitro Assay; ref Albrecht 2019; cited from earlier work
PHH [19] = conditions: In vitro Assay; ref Albrecht 2019; cited from earlier work
[20] = In vitro Assay, ref Khetani 2012
[21] = In vitro Assay, ref O'Brien 2006
[22] = In vitro Assay, ref Proctor 2017

For `C[C@H](CS)C(=O)N1CCC[C@H]1C(=O)O` [captopril], the “RMPCC's” value (RMPCC's) is listed as “-VE”, the “DILI +VE (5-8), DILI -VE (-4)” value ([1]; in vivo) is listed as “+VE” and the DILI severity category ([1]; in vivo) is listed as “vLess-DILI-Concern”. The “Structural based (HCI)” value (HepG2 cells [2]) was “+VE”, the “In vivo DILI” value ([3]; in vivo) was “+VE” and the “Bayesian Machine Learning” value [4] was “+VE”. The “Ro2 Hybrid HRM Score” value [5] was “-VE”, the “Structural based (HCI)” value (human hepatocytes) was “-VE” and the “HMPCC's” value (hu-MPCC) was “-VE”. The “Structural based (HCI)” value (HepG2 cells [6]) was “+VE”.

For `O=P1(N(CCCl)CCCl)NCCCO1` (stereo not shown) [cyclophosphamide, reference compound], the “RMPCC's” value (RMPCC's) is given as “+VE”, the “DILI +VE (5-8), DILI -VE (-4)” value ([1]; in vivo) is given as “+VE” and the “DILI severity category (Chen et al. [2016])” value ([1]; in vivo) is given as “Less”. For the same molecule, the “DILI in vitro assay prediction, O'Brien (2006)” value (HepG2 cells [2]) was “+VE (key: +VE: lowest HCI endpoint IC50 (or in the absence of dose–response < 100 µM) < 30 × total human plasma exposure levels (Cmax.tot))”, the “Structural based (HCI)” value (HepG2 cells [2]) was “+VE” and the “Assigned DILI category” value ([3]; in vivo) was 2. The “Partition Hybrid HRM Score” value [5] was “-VE”, the “Partition Hybrid HRM Score ≥4, Aleo (2019)” value [5] was “-VE” and the “Partition Hybrid HRM Score ≥8, Aleo (2019)” value [5] was “-VE”. The “Ro2 Hybrid HRM Score” value [5] was “-VE”, the “Rule of Two hybrid HRM Score ≥3, Aleo (2019)” value [5] was “-VE” and the “Rule of Two hybrid HRM Score ≥8, Aleo (2019)” value [5] was “-VE”. For the same molecule, the “DILI in vitro assay prediction, Xu (2008)” value (human hepatocytes) was “-VE”, the “Structural based (HCI)” value (human hepatocytes) was “-VE” and the Cmax [7] was 143 µM. For the same molecule, the “DILI Score (FDA) (1-8)” value [8] was 5, the “HMPCC's” value (hu-MPCC) was “+VE” and the AC50 (HepaRG spheroids [9]; read-out: ATP endpoint AC50) was 419 µM. For the same molecule, the minimal effective concentration (HepaRG spheroids [9]; read-out: ATP endpoint MEC) was 229 µM, the AC50 (HepaRG spheroids [9]; read-out: HCS endpoint AC50) was 1860 µM and the minimal effective concentration (HepaRG spheroids [9]; read-out: HCS endpoint MEC) was 340 µM. For the same molecule, the “Human plasma Cmax,u” value [10] was 114.400 µM, the “hLiMTs ATP <100uM” value (hLiMTs [11]) was “-VE” and the “hLiMTs/100uM, Proctor (2017)” value (hLiMTs [11]) was “-VE”. For the same molecule, the “DILI in vitro assay prediction, Tolosa (2012)” value (HepG2 cells [6]) was “-VE”, the “Structural based (HCI)” value (HepG2 cells [6]) was “+VE” and the AC50 (hLiMTs [12]; read-out: ATP endpoint AC50) was 906 µM. It also gave a minimal effective concentration (hLiMTs [12]; read-out: ATP endpoint MEC) of 613 µM, an AC50 (hLiMTs [12]; read-out: HCS endpoint AC50) of 992 µM and a minimal effective concentration (hLiMTs [12]; read-out: HCS endpoint MEC) of 236 µM. For the same molecule, the “DILI prediction HepaRG spheroids (HCS-MEC)” value (HepaRG spheroids [13]) was “+VE (key: +VE: MEC < 25 × Cmax.tot cut-off)”, the “HepaRG <10 uM All” value (HepaRG spheroids [13]) was “-ve” and the “HepaRG <100x Avg Cmaxu ATP” value (HepaRG spheroids [13]; human) was “+ve (key: +ve: <100x Avg Cmaxu)”. The “HepaRG <100x Avg Cmaxu All” value (HepaRG spheroids [13]; human) was “+ve (key: +ve: <100x Avg Cmaxu)”, the “HepaRG <100x Avg Cmaxu HCS” value (HepaRG spheroids [13]; human) was “+ve (key: +ve: <100x Avg Cmaxu)” and the “HepaRG Cmax max All” value (HepaRG spheroids [13]; human) was “+ve”. The “HepaRG Cmax min All” value (HepaRG spheroids [13]; human) was “-ve”, the “PHH ATP <100uM” value (PHH [14]) was “-VE” and the “PHH/100uM, Proctor (2017)” value (PHH [14]) was “-VE”. For the same molecule, the “Cellular toxicity (3T3 cells)” value [15] was “-VE”, the “DILI in vitro assay prediction, Schadt (2015)” value [15] was “-VE” and the “GSH adduct HML” value [15] was “-VE”. For the same molecule, the Hepatocyte cellular toxicity [15] was “-VE”, the “MitoTox 3T3” value [15] was “-VE” and the “TDI CYP3A4” value [15] was “-VE”. For the same molecule, the hBSEP inhibition [15] was “-VE”, the “DILI prediction hLiMTs (HCS-MEC)” value (hLiMTs [16]) was “+VE (key: +VE: MEC < 25 × Cmax.tot cut-off)” and the “hLiMTs <10 uM All” value (hLiMTs [16]) was “-ve”. The “hLiMTs <100x Avg Cmaxu ATP” value (hLiMTs [16]; human) was “+ve (key: +ve: <100x Avg Cmaxu)”, the “hLiMTs <100x Avg Cmaxu All” value (hLiMTs [16]; human) was “+ve (key: +ve: <100x Avg Cmaxu)” and the “hLiMTs <100x Avg Cmaxu HCS” value (hLiMTs [16]; human) was “+ve (key: +ve: <100x Avg Cmaxu)”. The “hLiMTs Cmax max All” value (hLiMTs [16]; human) was “+ve” and the “hLiMTs Cmax min All” value (hLiMTs [16]; human) was “-ve”.

In the case of `CN(C)CCCN1c2ccccc2CCc2ccccc21` [imipramine], the “RMPCC's” value (RMPCC's; [20]) is given as “-VE”, the “in vitro data EC2<=1x Cmax” value [17] is given as “-VE” and the “in vitro data EC20<=2uM” value [17] is given as “+VE”. For the same molecule, the “DILI +VE (5-8), DILI -VE (-4)” value ([1]; ref Chen 2016) was “+VE”, the DILI severity category ([1]; ref Chen 2016) was “vLess-DILI-Concern” and the “Structural based (HCI)” value (HepG2 cells [2]; [21]) was “+VE”. The “In vivo DILI” value ([3]; […]) was “+VE”, the “In vivo DILI” value ([3]; ref Aleo 2019) was “+VE” and the “In vivo DILI” value ([3]; ref Garside 2014) was “+VE”. For the same molecule, the “In vivo DILI” value ([3]; ref Khetani 2012) was “+VE”, the “In vivo DILI” value ([3]; ref O'Brien 2006) was “+VE” and the “In vivo DILI” value ([3]; ref Persson 2013) was “+VE”. The “In vivo DILI” value ([3]; ref Porceddu 2012) was “+VE”, the “In vivo DILI” value ([3]; ref Proctor 2017) was “+VE” and the “In vivo DILI” value ([3]; ref Schadt 2015) was “-VE”. The “In vivo DILI” value ([3]; ref Tolosa 2012) was “+VE”, the “In vivo DILI” value ([3]; ref Vorrink 2018) was “+VE” and the “In vivo DILI” value ([3]; ref Williams 2019) was “+VE”. The “In vivo DILI” value ([3]; ref Xu 2008) was “+VE”, the “Bayesian Machine Learning” value ([4]; In vitro Assay, ref Williams 2019) was “+VE” and the “Ro2 Hybrid HRM Score” value ([5]; In vitro Assay, ref Aleo 2019) was “+VE”. For the same molecule, the “HMPCC's” value (hu-MPCC; [20]) was “+VE”, the “Structural based (HCI)” value (HepG2 cells [18]) was “+VE” and the “hLiMTs ATP <100uM” value (hLiMTs [11]; [22]) was “+VE (IC50 threshold of 100 µM)”. The “hLiMTs ATP <20 x Cmax” value (PHH spheroids) was “+VE (IC20 < 20 × Cmax.tot cut-off)”, the “Structural based (HCI)” value (HepG2 cells [6]; In vitro Assay, ref Tolosa 2012) was “+VE” and the “PHH ATP <100uM” value (PHH [14]; [22]) was “+VE (IC50 threshold of 100 µM)”.

For `CCCCC1C(=O)N(c2ccccc2)N(c2ccccc2)C1=O` [phenylbutazone], the “RMPCC's” value (RMPCC's; [20]) is listed as “+VE”, the “in vitro data EC2<=1x Cmax” value [17] is listed as “+VE” and the “Structural based (HCI)” value (HepG2 cells [2]; [21]) is listed as “+VE”. The “In vivo DILI” value ([3]; in vivo) was “+VE”, the “Cytotoxicity HepG2 48 hrs” value (HepG2) was “+VE” and the “Cytotoxicity PHH 48 hrs” value (PHH [19]) was “+VE”. For the same molecule, the “HMPCC's” value (hu-MPCC; [20]) was “+VE”.

Source: PMC7395068, “The evolution of strategies to minimise the risk of human drug-induced liver injury (DILI) in drug discovery and development” (Archives of Toxicology, 2020)
